From patent publication US20080045482A1, “COMPOSITIONS AND METHODS FOR THE TREATMENT OF VIRAL INFECTIONS” (priority 2006, published 2008)
Where “and” joins values, the source holds several entries; their conditions need not be identical. Equal entries are not always repeated.

Tests used:
[1] = system: A/California/2935/03 (H1N1); format: cell-based, human influenza A virus
[2] = system: A/NorthDakota/2463/03 (H3N2); format: cell-based, human influenza A virus
[3] = system: A/Equine1/Prague/1/56 (H3N8); format: cell-based, equine influenza A virus
[4] = system: A/Duck/Penn/10218/84 (H5N2); format: cell-based, avian influenza A virus
[5] = system: Human Immunodeficiency Virus-1 (HIV-1); settings: HIV-1, in words
HIV-2 = settings: HIV-2, in words
[6] = system: Herpes Simplex Virus-1 (HSV-1); settings: HSV-1, in words
HSV-2 = settings: HSV-2, in words
[7] = system: Adenovirus type-1 (AdV-1, strain 65089); settings: AdV-1, strain 65089, in words
[8] = system: Punta Torro Virus (strain Adames); settings: in words
[9] = system: Pichinde Virus (strain 4763); settings: Pichinde Virus strain 4763, in words
[10] = system: Vaccinia Virus (strain WR); settings: in words
[11] = system: Venezuelan Equine Encephalitis Virus (VEE, Trinidad strain)
[12] = system: West Nile Virus (WNV, strain New York); settings: in words
[13] = system: Yellow Fever Virus (17D strain)
B/1060/03 = format: cell-based, human influenza B virus
pH in water = format: physicochemical
[14] = system: viral strains from avian, human and equine influenza; format: cell-based, influenza virus; settings: read-out: IC90 concentrations
Aqueous solubility = settings: 37° C. in distilled water

Question: For `O=C(O)P(O)(O)=S` [TPFA, thiophosphonoformic acid], which inhibitory activity [1] is on record?
Answer: The inhibitory activity was “has inhibitory activity”.

Question: And the inhibitory activity [2]?
Answer: Its inhibitory activity is “has inhibitory activity”.

Question: What about the inhibitory activity [3] of the same molecule?
Answer: The inhibitory activity was “has inhibitory activity”.

Question: What about the inhibitory activity [4] of the same molecule?
Answer: The inhibitory activity was “has inhibitory activity”.

Question: And the inhibitory activity [5]?
Answer: Its inhibitory activity is “has inhibitory activity”.

Question: What about the inhibitory activity (HIV-2) of the same molecule?
Answer: The inhibitory activity was “has inhibitory activity”.

Question: And the inhibitory activity [6]?
Answer: The inhibitory activity was “has inhibitory activity”.

Question: And the inhibitory activity (HSV-2)?
Answer: The inhibitory activity was “has inhibitory activity”.

Question: And the inhibitory activity [7]?
Answer: Its inhibitory activity is “does not have inhibitory activity”.

Question: And the inhibitory activity [8]?
Answer: Its inhibitory activity is “does not have inhibitory activity”.

Question: What about the inhibitory activity [9] of the same molecule?
Answer: Its inhibitory activity is “does not have inhibitory activity”.

Question: What about the inhibitory activity [10] of the same molecule?
Answer: Its inhibitory activity is “does not have inhibitory activity”.

Question: And the inhibitory activity [11]?
Answer: Its inhibitory activity is “does not have inhibitory activity”.

Question: And the inhibitory activity [12]?
Answer: The inhibitory activity was “does not have inhibitory activity”.

Question: And the inhibitory activity [13]?
Answer: The inhibitory activity was “does not have inhibitory activity”.

Question: What about the metabolism (Metabolism in the body) of the same molecule?
Answer: The metabolism was “metabolized to phosphonoformic acid and thiophosphonic acid”.

Question: What does the source list for `O=C(O)P(O)(O)=S` [Thiovir]?
Answer: IC50 [1]: 38 µM; IC50 [2]: 29 µM; IC50 [3]: 55 µM; IC50 [4]: 32 µM; IC50 (B/1060/03): 92 µM; pH in water (pH in water): approximately 9; IC90 [14]: < 250 µM and ~200 µM; aqueous solubility (Aqueous solubility): 40.8 g/100 mL
